# Data reported in patent US20120021434A1, “METHOD FOR TREATING B CELL REGULATED AUTOIMMUNE DISORDERS” (Synta Pharmaceuticals Corp., priority 2005, published 2012).
# Tests used:
# IKKβ = assay: Phosphorylation of IKKβ in IFNγ/LPS-stimulated THP-1 cells (immunoblot); assay type: cell-based; settings: THP-1 whole cell extracts, IFNγ/LPS 5 min to 1 hr, 500 nM
# Protocol: The whole cell extracts were prepared using Cell Lysis Buffer (Cell Signaling, Beverly, Mass., USA) according to the manufacture's instruction.
# The phosphorylation of IKK is an early step in NF-κB activation. To determine whether Compound 50 inhibits the activation of the IKK complex, the level of phosphorylated IKKβ was investigated in drug-treated, LPS-stimulated cells. Whole cell extracts were prepared from THP-1 cells that had been stimulated with IFNγ/LPS for 5 min, 15 min 30 min and 1 hr in the either the absence or presence of 500 nM Compound 50. Phosphorylated IKKβ was determined by immunoblot analysis using an anti-phospho IKKβ antibody. […] Compound 50 treatment had no effect on the induction of phosphorylated IKKβ.
# [1] = test system: purified mouse splenic (CD19+) B cells; assay: Primary mouse B cell survival, Annexin V/propidium iodide flow cytometry; assay type: cell-based; settings: 24 h; for viability at 0.0001 µM / viability at 0.001 µM / viability at 0.01 µM / viability at 0.1 µM / viability at 1 µM: Mus musculus, B-cell
# Protocol: Therefore, the effect of Compound 50 on the activation and survival of homogeneous populations of primary B and T lymphocytes has been explored. As a first step in this process, we evaluated the effect of Compound 50 on the survival of purified mouse splenic (CD19^+) B cells. When cultured ex vivo, primary B cells undergo spontaneous apoptosis within 24-48 h in the absence of any survival signals. Examples of such stimuli include those mediated by anti-CD40 (or CD40L), BAFF, or B cell receptor signals provided by either anti-IgM or LPS. Murine primary B cells were isolated from mouse spleen using anti-CD19 coated magnetic beads (Miltenyi Biotec) according to the manufacturer's recommendations. Purified CD19^+ B cells were cultured at 100,000 cells/well in 96-well microtiter plates in culture medium (RPMI 1640 supplemented with 10% fetal bovine serum, 2 mM L-glutamine, 1 mM sodium pyruvate, 20 mM HEPES, and 55 μM β-mercaptoethanol) in the presence of 10 μg/ml anti-CD40, 5 μg/ml LPS or 100 ng/ml BAFF in the presence or absence of Compound 50 for 24 h and measured the frequency of viable and apoptotic cells using Annexin V/propidum iodide flow cytometric analysis. To perform this analysis, cells were washed with PBS and labeled with Annexin V-FITC and propidium iodide (BioVision) according to the manufacturer's instructions. Apoptotic cell (Annexin V-positive) and live cell (Annexin V-negative/propidium iodide-negative) percentages were determined using a flow cytometer.
smiles,measurement,setting,value
"Cc1cccc(/C=N/Nc2cc(N3CCOCC3)nc(OCCc3ccccn3)n2)c1 [Compound 50, N-(3-Methyl-benzylidene)-N′-[6-morpholin-4-yl-2-(2-pyridin-2-yl-ethoxy)-pyrimidin-4-yl]-hydrazine]",induction of phosphorylated IKKβ,IKKβ,no effect
same,% Apoptotic,"[1]; Anti-CD40 (10 μg/ml), 0.1 nM",39%
same,% Apoptotic,"[1]; Anti-CD40 (10 μg/ml), 1 nM",37%
same,% Apoptotic,"[1]; Anti-CD40 (10 μg/ml), 10 nM",46%
same,% Apoptotic,"[1]; Anti-CD40 (10 μg/ml), 100 nM",89%
same,% Apoptotic,"[1]; Anti-CD40 (10 μg/ml), 1000 nM",90%
same,% Apoptotic,"[1]; BAFF (100 ng/ml), 0.1 nM",40%
same,% Apoptotic,"[1]; BAFF (100 ng/ml), 1 nM",43%
same,% Apoptotic,"[1]; BAFF (100 ng/ml), 10 nM",52%
same,% Apoptotic,"[1]; BAFF (100 ng/ml), 100 nM",92%
same,% Apoptotic,"[1]; BAFF (100 ng/ml), 1000 nM",93%
same,% Apoptotic,"[1]; LPS (5 μg/ml), 0.1 nM",31%
same,% Apoptotic,"[1]; LPS (5 μg/ml), 1 nM",32%
same,% Apoptotic,"[1]; LPS (5 μg/ml), 10 nM",44%
same,% Apoptotic,"[1]; LPS (5 μg/ml), 100 nM",79%
same,% Apoptotic,"[1]; LPS (5 μg/ml), 1000 nM",79%
same,viability at 0.0001 µM,"[1]; Anti-CD40 (10 μg/ml), 0.1 nM",55%
same,viability at 0.001 µM,"[1]; Anti-CD40 (10 μg/ml), 1 nM",51%
same,viability at 0.01 µM,"[1]; Anti-CD40 (10 μg/ml), 10 nM",48%
same,viability at 0.1 µM,"[1]; Anti-CD40 (10 μg/ml), 100 nM",5%
same,viability at 1 µM,"[1]; Anti-CD40 (10 μg/ml), 1000 nM",3%
same,viability at 0.0001 µM,"[1]; BAFF (100 ng/ml), 0.1 nM",55%
same,viability at 0.001 µM,"[1]; BAFF (100 ng/ml), 1 nM",52%
same,viability at 0.01 µM,"[1]; BAFF (100 ng/ml), 10 nM",43%
same,viability at 0.1 µM,"[1]; BAFF (100 ng/ml), 100 nM",4%
same,viability at 1 µM,"[1]; BAFF (100 ng/ml), 1000 nM",3%
same,viability at 0.0001 µM,"[1]; LPS (5 μg/ml), 0.1 nM",63%
same,viability at 0.001 µM,"[1]; LPS (5 μg/ml), 1 nM",63%
same,viability at 0.01 µM,"[1]; LPS (5 μg/ml), 10 nM",51%
same,viability at 0.1 µM,"[1]; LPS (5 μg/ml), 100 nM",15%
same,viability at 1 µM,"[1]; LPS (5 μg/ml), 1000 nM",13%
same,B cells apoptotic,"[1]; concentrations 100 nM, with anti-CD40, LPS or BAFF",80-90%
